Test results as given in patent publication US6933315B2, “Derivatives of isoindigo, indigo and indirubin and methods of treating cancer” (priority 2001, dated 2005).

Key:
MCF-7 = experiment: Growth inhibition by MTT, MCF-7 breast cancer cells; type: cell-based, Human; conditions: Homo sapiens, MCF7, 72 h exposure
Experimental: (§1) Growth inhibitory effects of NATURA and other agents on human cancer cells were determined by standard MTT (3-(4,5-dimethylthiazol-2-yl)-2,5-diphenyltetrazolium bromide Test) as described previously. Briefly, cancer cells grown exponentially were aliquoted into 96-well plates at a density of 5000 cells/200 μl per well in RPMI 1640 medium containing 10% FBS overnight. The cells in the plates were then exposed to series of dilution of indicated agent. After 72 h of incubation, 100 μl of the medium was removed from each of the wells and 50 μl of a 1 mg/ml solution of 3-(4,5-dimethylthiazol-2-yl)-2,5-diphenyltetrazolium bromide (MTT) was added to each well and the cells were incubated for additional 4 h. 200 μl of solution of 0.04 N HCl-isopropanol was added to each well to dissolve the black fromazan participates, and absorbance at 540 nm was measured on a 96-Well.
as §1, with “FIGS. 3-5 show the anticancer affects” for “Growth inhibitory effects”, “NATURA in MCF-7 breast cancer cells, DLD-1 colon cancer cells,” for “NATURA”, “LNCaP hormone-dependent prostate” for “other agents on human”, “cells. The” for “cells were determined by standard MTT (3-(4,5-dimethylthiazol-2-yl)-2,5-diphenyltetrazolium bromide Test) as described previously. Briefly,”, “fetal bovine serum (FBS)” for “FBS”, “96-Well Microplate Reader. Each experiment was repeated at least three times.” for “96-Well.”

DU145 = experiment: Growth inhibition by MTT, DU145 prostate cancer cells; type: cell-based, Human; conditions: Homo sapiens, DU-145; MTT, 72 h exposure; read-out: IC50 DU145
Experimental: as §1

[1] = Acute toxicity, median lethal dose LD50; conditions: for DFP (Frequency of Death): mice, oral, two weeks
Experimental: The animals were given Meisoindigo suspension orally at dosage of 0, 1.85, 2.60, 3.60, 5.10, 7.14, and 10.00 g/kg respectively. The animals were tested for two weeks, and the LD50 was measured using modified Bliss method as follows.
LD50 was calculated using following equation: LD50=log^−1 [Xm−i(ΣDFP−0.5)]
Here, Xm is the maximal frequency of death, Xm=I in this case; i is the distance of group. It is determined by following equation, in this case r=1.4 i=log 1/r=0.146

LNCaP cells = experiment: DNA fragmentation (ladder) in LNCaP cells; type: cell-based, Human; conditions: 15 μM, 2 days
Experimental: (§2) Once cancer cells have been arrested at G1 phase by either derivatives of the invention, such as, Meisiondigo or NATURA, they will either differentiate or enter apoptosis. […] FIG. 8 confirms that Meisoindigo and NATURA cause apoptosis. The formation of DNA fragmentation (ladder) were measured, an indicator of cell apoptosis, in both LNCaP prostate and N2A neuroblastoma cells. To do this LNCaP and neuroblastoma N2A cells at exponential growth phase were exposed to indicated concentrations of Meisoindigo or NATURA or Taxol (20 nM, as a positive control) for 2 days. The cells were harvested, washed and DNA extracted. Approximately 2 μg per lane of DNA were subjected to 2% agarose gel electrophoresis.
(§3) Induction of Apoptosis: As we mentioned previously that cancer cells probably have two options after arrest at G1 phase, i.e. differentiation or apoptosis. […] To confirm our hypothesis and earlier observations, we measured poly(ADP-ribose) polymerase (PARP) degradation and the formation of DNA fragmentation (ladder), indicators of cell apoptosis, in both LNCaP prostate and N2A neuroblastoma cells. LNCaP and neuroblastoma N2A cells at exponential growth phase were exposed to indicated concentrations of Meisoindigo or NATURA or Taxol (20 nM, as a positive control) for 2 days. The cells were harvested, washed and DNA extracted. […]

neuroblastoma N2A cells = experiment: DNA fragmentation (ladder) in N2A neuroblastoma cells; type: cell-based, Mouse; conditions: 5 μM, 2 days
Experimental: as §2, §3

cyclin D1 = experiment: Cyclin D1 protein level by Western blot in HUVEC cells; type: cell-based, human; conditions: 24 hrs; for cyclin D1 protein: 15 μM; for expression of cyclin D1: 5.0 and 15 μM
Experimental: Meisoindigo and NATURA also significant inhibit expression of cyclin D1 in HUVEC cells. Exponentially growing HUVEC cells were exposed to 5.0 and 15 μM of Meisoindigo and NATURA, 24 hrs after the exposures, the cells were harvested, washed, and total proteins extracted for Western blot analysis using a monoclonal antibody specific against cyclin D1 (Dako). […] As a result, phosphorylation of a tumor suppressor protein Rb, a native substrate of cyclin D1 mediated cdks, was diminished (data not shown).
HUVEC cells grown exponentially were treated for 24 hrs with […] of Meisoindigo and NATURA. The cells were harvested, washed, and total proteins extracted for Western blot analysis as previously described using antibodies specifically against cyclin D1 (panel A), and b-actin (equal loading control, panel B), and detected by ECL detection kit (Amersham). The levels of cyclin D1 from Panel A were quantitated by an imagine densitometor and normalized by b-action (Panel C).

Walker 256 = experiment: Anticancer activity against Walker 256 sarcoma
Experimental: Anticancer activity against Walker 256: Wistar rats with body weights between 50 to 55 grams, were randomly divided into several groups, ten of each, respectively. Approximately 2×10^6 of the Walker sarcoma cells were transplanted into a Wistar rat. Twenty-four hours after the transplantation, equal molar dosage (0.384 mM/kg) of NATURA or other sugar derivatives were given orally for 10 days. The animals in the control group were given 0.1 ml saline (drug vehicle, negative control) for the same periods of time as treated group. Twenty-four hours after the last administration, the animals were sacrificed and tumors were removed and weighed.
Briefly, C57 mice, body weight between 18 to 22 grams, and rat, body weight between 50 to 55 grams, were randomly divided into several groups, ten of each, respectively. Approximately 2×10^6 of Lewis cancer cells or Walker sarcoma cells were transplanted into mice or rat. […] The animals in the control group were given 0.1 ml saline (drug vehicle, negative control) for the same periods of time as treated group. The animals at end of the treatment were sacrificed and tumors were removed and weighed.
In order to assess the anticancer activities of NATURA and other sugar derivatives, Wistard rats transplanted with W256 were given the same molar of the tested compounds (0.384 mM/kg) for the same period of time (10 days).

[2] = Walker 256, rat, oral, Indirubin 100 × 9, Meisoindigo 106 × 9 mg/kgxd

CN1C(=O)/C(=C2/C(=O)Nc3ccccc32)c2ccccc21 [Meisoindigo]
IC50 (MCF-7): 4.37 ± 0.31 µM | IC50 (DU145): 8.31 ± 0.93 µM | Unit of DF ([1]; Dose 1.86 g/kg): 2.674 | [DF]^2P^2 ([1]; Dose 1.86 g/kg): 0 | LD50 at 2 weeks ([1]; Kuan Ming, mouse, in vivo, po): 3900 ± 800 mg/kg | LD50 ([1]; Kuan Ming, mouse, in vivo, po, 2 weeks): 3900 ± 800 mg/kg | DFP (Frequency of Death) ([1]; Dose 1.86 g/kg): 0 | DFP (Frequency of Death) ([1]; Dose 2.60 g/kg): 0.20 | DFP (Frequency of Death) ([1]; Dose 3.60 g/kg): 0.60 | DFP (Frequency of Death) ([1]; Dose 5.10 g/kg): 0.70 | DFP (Frequency of Death) ([1]; Dose 7.14 g/kg): 0.80 | DFP (Frequency of Death) ([1]; Dose 10.00 g/kg): 1.00 | DNA fragmentation (LNCaP cells): significant DNA fragmentation | DNA ladders (neuroblastoma N2A cells): sufficient to significantly induce DNA ladders | cyclin D1 protein (cyclin D1): almost completely lost | expression of cyclin D1 (cyclin D1): strongly inhibit | Inhibition (%) (Walker 256; [2]): 71.6 ± 3.1% | Tumor Size X ± SD (Walker 256; [2]): 2.10 ± 0.17

CC(=O)OC1COC(N2C(=O)/C(=C3/C(=O)Nc4ccccc43)c3ccccc32)C(OC(C)=O)C1OC(C)=O [NATURA, 1-(β-D-O-Triacetyl-xylopyranosyl)-isoindigo]
IC50 (MCF-7): 2.91 ± 0.28 µM | IC50 (DU145): 6.92 ± 0.73 µM | LD50 at 2 weeks ([1]; Kuan Ming, mouse, in vivo, po): 7330 ± 1150 mg/kg | DNA fragmentation (LNCaP cells): significant DNA fragmentation | DNA ladders (neuroblastoma N2A cells): sufficient to significantly induce DNA ladders | cyclin D1 protein (cyclin D1): almost completely lost | expression of cyclin D1 (cyclin D1): strongly inhibit | Percent of Inhibition against Walker 256 (Walker 256; Wistar rats, 0.384 mM/kg orally for 10 days): 77% | Percent of Inhibition against Walker 256 (Walker 256; Wistar rats, 0.384 mM/kg orally for 10 days; listed as Xyl-Ac*NATURA)): 77.5%
